“Also recorded” adds a separate entry of the source. Like-named read-outs stand apart in the source and are kept apart here.
Experiments:
[1] = system: herpes simplex virus (HSV-1); experiment: Antiviral activity with respect to HSV-1 in VERO cells; assay type: cell-based, type 1, strain L2; details: 100 TCD50, 48 hours after the infection
Excerpt: Herpes simplex virus, type 1, strain L2, replicated in VERO cells was used in the investigation.
[…] acyclovir was used as positive control

[2] = system: porcine embryo kidney cells (SPEV); experiment: Cytotoxic properties on SPEV cell culture; assay type: cell-based; details: for Percentage of died cells on exposure with different concentrations of the preparation during 48 hours: SPEV
Experimental: Cultures of reinoculated porcine embryo kidney cells (SPEV), highly sensitive to the pathogenic action of HSV, obtained from “Narva” Company (Russia) were employed. These cultures were used in the form of a one day monolayer of cells, grown in 24-cell plastic plates. The cultures of SPEV cells were grown on medium 199 with 10% of fetal calf serum with addition of glutamine and antibiotics (100 U/ml).
For studying the antiviral activity of the preparation, the preparation was introduced in various concentrations into the SPEV cell cultures at the moment of infection and in 24 hours after the infection with hepatitis C virus on the cell in 24-cell plastic culture plates.

Hep 2 cells [3] = experiment: Proliferation of human epithelial carcinoma Hep 2 cells; assay type: cell-based
Experimental: In our experiments we used a 1 day culture of passage 14 Hep 2 cells—reinoculated cells of human epithelial carcinoma.
The growth medium contained DMEM+glutamine+antibiotics+5% FBS (fetal bovine serum). The supporting medium was DMEM/needle with a double kit of amino acids and vitamins+glutamine+antibiotics+10% of cattle serum.
The effect of such influence was most pronounced on the seventh day at the concentration of 100 μg/ml: there appeared discontinuities in the monolayer and there were many cell conglomerates in the culture medium.
The monolayer was removed from the glass plate in the 500 μl volume of the medium. The cells were precipitated from 200 μl, resuspended in a lysing buffer; electrophoresis of proteins was carried out in 12.5% PAAG with Kumashi staining.
(§1) A reduction in the intensity of protein profiles was observed on the second day and most dramatically on the seventh day at the studied concentrations of the preparation as compared with control. This can be indicative of a reduction in the number of cells because of inhibition of the mitotic activity of cells in the presence of the preparation. On the 7th day of the action of the preparation a reduction in the number of DNA compared with control was observed. Checking for the presence of DNA fragmentation has shown its absence, i.e., apoptosis manifestations were not detected.

Hep 2 cells [4] = experiment: Apoptosis signs in Hep 2 cells (DNA fragmentation, Fas-antigen mRNA forms); assay type: cell-based, human; details: for Redistribution of soluble and membrane Fas-antigen mRNA forms indicative of Fas-dependent apoptosis: 10, 50, 100 μg/ml
Excerpt: as §1
For establishing the influence of the preparation on intracellular biosynthetic processes, we have analyzed the synthesis and maturing in the Hep 2 cells of Fas-antigen mRNA. Fas-antigen is a receptor protein of the signal of programmed death of cells—apoptosis—and it can exist in two forms: in membrane form and in soluble form. It has been shown that in the presence of the preparation there occurs redistribution of the alternative forms of the Fas-antigen mRNA, this being indicative of the influence of the preparation on the biosynthetic processes in Hep 2 cells on the transcripton level; however, reconstructions indicative of the feasibility of Fas-dependent apoptosis are absent (FIG. 8).

## sodium salt of fullerene-polyamino-caproic acid
[1]; 10 μg/ml
  Protection of VERO cells against the cytodestructive action of HSV-1: full protection
[1]; 1.0, 10 and 50 μg/ml, introduced 30 and 60 minutes after the infection
  Protection of VERO cells from the cytodestructive action of HSV-1: full protection
[2]; 6.25 (in μg)
  Percentage of died cells on exposure with different concentrations of the preparation during 48 hours: 0%
[2]; 12.5 (in μg)
  Percentage of died cells on exposure with different concentrations of the preparation during 48 hours: 0%
[2]; 25 (in μg)
  Percentage of died cells on exposure with different concentrations of the preparation during 48 hours: 0%
[2]; 50 (in μg)
  Percentage of died cells on exposure with different concentrations of the preparation during 48 hours: 0%
[2]; 100 (in μg)
  Percentage of died cells on exposure with different concentrations of the preparation during 48 hours: 0%
[2]; concentration of up to 100 μg/ml
  Cytotoxic properties for SPEV cell cultures: does not have cytotoxic properties
Hep 2 cells [3]; 7th day
  Number of DNA compared with control: reduction
Hep 2 cells [3]; 10, 50 and 100 μg/ml, most pronounced at 100 μg/ml
  Proliferation of Hep 2 cells (monolayer formation): pronounced inhibition; also recorded: inhibits the formation of a monolayer
Hep 2 cells [3]; second day and most dramatically seventh day, 10, 50 and 100 μg/ml
  Intensity of protein profiles compared with control: reduction
Hep 2 cells [4]
  DNA fragmentation (apoptosis manifestations): not recorded
  Redistribution of soluble and membrane Fas-antigen mRNA forms indicative of Fas-dependent apoptosis: no redistribution
Hep 2 cells [4]; listed as preparation
  Redistribution of soluble and membrane Fas-antigen mRNA forms indicative of Fas-dependent apoptosis: absent
  DNA fragmentation (apoptosis manifestations): absence

— patent publication US20060122276A1, “Agent for inhibiting membrane virus reproduction, method for the production thereof, pharmaceutical composition and method for inhibiting viral infections” (priority 2003, published 2006)
